In patent US20260055108A1, “TRIAZINE COMPOUNDS AND USES THEREOF” (HUTCHMED LIMITED, priority 2022, published 2026):
Structures can show the parent of a compound that is named as a salt. Where two headings read alike, the source gives them in different places.

Tests used:
[1] = test system: MV-4-11 cells (human acute myelogenous leukemia cell line carrying MLL-AF4 mutation); assay: Cell proliferation assay, MV-4-11 (CellTiter-Glo); format: cell-based; conditions: Homo sapiens, MV4-11, 72 h
Protocol: Example 4 Cell Proliferation Assay
MV-4-11 (ATCC, CRL-9591), a human acute myelogenous leukemia cell line carrying MLL-AF4 mutation. Cells were cultured in an IMDM medium containing 10% heat-inactivated fetal bovine serum (HIFBS) and supplemented with 50 μM β-mercaptoethanol.
2. Reagents, Materials and Instruments:
• IMDM culture solution: GIBCO, 12440-053; • HIFBS: GIBCO, 10100-147; • β-mercaptoethanol: Sigma, M3148; • CellTiter-Glo® 2.0 assay kit (CTG): Promega, G9243; • DMSO: Sigma, D4540; • 96-well cell culture plate: Corning, 3903; • Envision: PerkinElmer.
MV-4-11 cells were resuspended in a medium, added to a 96-well plate at a density of 3000 cells/well with a volume of 100 μL/well, and cultured in a cell incubator at 5% CO2 and 37° C. for 4 hours. The test compound subjected to gradient dilution with the medium was added to a cell culture plate, and the final concentrations of the compound were 1.100, 0.367, 0.122, 0.041, 0.014, 0.005, 0.002 and 0.001 μM, respectively. The corresponding volume of DMSO diluent was added to a blank control well, and the final concentrations of DMSO in the experimental group and control group were both 0.1%. The cell plate was placed in a cell incubator at 5% CO2 and 37° C. and cultured for 3 days.
On day 0 and day 3 of the treatment, 50 μL/well CTG reagent was added to the cell plate and shaken at room temperature in the dark for 10 min, and then the chemiluminescence value of each well was measured with Envision.
[formula] • wherein: • luminescence valuetest sample: the chemiluminescence value of a cell well treated with the test compound for 3 days. • luminescence valueday 0: the chemiluminescence value of a cell well at day 0. • luminescence valuecell well: the chemiluminescence value of a cell well not treated with the compound for 3 days.
(§1) • calculated by using software XL-Fit™ (version 5.3) supplied by ID Business Solutions (Guildford, UK), which is an additional software to Microsoft Excel.

[2] = molecular target: Recombinant human Menin protein (2-610) / MLL polypeptide binding (Homo sapiens (Human), UniProt O00255); assay: Menin and MLL protein binding at a molecular level (fluorescence polarization method); conditions: inhibition of Menin / MLL polypeptide binding
From the text: Example 3: Determination of the Activity of the Compounds of the Present Invention on Menin and MLL Protein Binding at a Molecular Level (Fluorescence Polarization Method)
1. Reagents, Materials and Instruments:
• Recombinant human Menin protein (2-610): ChemPartner, CP2021020801; • MLL polypeptide (6-FAM-Ahx-SG-40): GL Biochem, 865700; • Trizma® hydrochloride buffer solution (Tris): Sigma, T2194-1 L; • NaCl: Invitrogen, AM9760G; • TCEP: Sigma, 646547; • DMSO: Sigma, D4540; • 384-well plate: Corning, 4514; • Envision: PerkinElmer.
2. Preparation of Reaction Solutions
• 1) Buffer solution: 20 mL of Tris and 4 mL of NaCl were added respectively to 376 mL of ddH2O, with pH adjusted to 7.5, and TCEP was added before testing with a dilution ratio of 1:500. • 2) 5× test compounds: the test compound was subjected to gradient dilution with the buffer solution to 5-fold the reaction concentration, so that the final concentrations of the compound were 1.000, 0.333, 0.111, 0.037, 0.012, 0.004, 0.001 and 0.0005 μM, respectively. • 3) 2.5× Menin protein reaction solution: the Menin protein was diluted to 5 nM with the buffer solution. • 4) 2.5×MLL polypeptide reaction solution: the MLL polypeptide was diluted to 5 nM with the buffer solution.
1) Binding Reaction (20 μL System)
4 μL of 5× test compound was added to each reaction well of the 384-well plate, and the corresponding volume of 10% DMSO was added to the control wells. Except the control wells, 8 μL of Menin protein reaction solution was added to each well. The reaction solution was incubated at room temperature for 30 minutes, and then 8 μL of MLL polypeptide reaction solution was added to each well. The final concentrations of DMSO in the test compound wells and control wells were all 2%. The 384-well plate was sealed and incubated at room temperature for 30 minutes in the dark.
Three control groups were set up: • a blank control group only containing a buffer solution; • a negative control group only containing MLL polypeptide reaction solution; and • a positive control group containing Menin protein reaction solution and MLL polypeptide reaction solution.
The vertical polarization S value and the horizontal polarization P value (excitation wavelength was 480 nm, and emission wavelength was 535 nm) were measured with Envision.
Corrected S is the S value of the negative control group—the S value of the blank control group
Corrected P is the P value of the negative control group—the P value of the blank control group
as §1

[3] = MV-4-11 cells, 3 days treatment, CellTiter-Glo, read-out: GI50

Recombinant human Menin protein (2-610) / MLL polypeptide binding, sequence (O00255 2-610): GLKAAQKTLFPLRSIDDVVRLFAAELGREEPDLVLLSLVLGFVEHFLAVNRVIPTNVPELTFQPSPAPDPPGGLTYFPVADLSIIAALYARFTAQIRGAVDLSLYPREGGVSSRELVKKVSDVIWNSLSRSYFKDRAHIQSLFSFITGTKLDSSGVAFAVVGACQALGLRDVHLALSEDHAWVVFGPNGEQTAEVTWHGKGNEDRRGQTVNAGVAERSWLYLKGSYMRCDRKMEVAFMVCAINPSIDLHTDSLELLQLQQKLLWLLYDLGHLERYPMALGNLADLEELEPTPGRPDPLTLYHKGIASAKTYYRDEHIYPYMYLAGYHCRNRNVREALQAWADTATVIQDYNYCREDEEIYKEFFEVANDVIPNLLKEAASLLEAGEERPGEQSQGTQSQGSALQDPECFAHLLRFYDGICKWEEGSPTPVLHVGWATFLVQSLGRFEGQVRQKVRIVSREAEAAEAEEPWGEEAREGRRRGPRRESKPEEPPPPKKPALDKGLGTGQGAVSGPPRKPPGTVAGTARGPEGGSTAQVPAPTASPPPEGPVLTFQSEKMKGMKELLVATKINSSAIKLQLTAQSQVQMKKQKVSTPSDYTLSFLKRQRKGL

| SMILES | GI50 [1, 3] [nM] | IC50 [2] [nM] | GI50 [1] [nM] |
| --- | --- | --- | --- |
| COc1cc(N2CCC(CN3CCC4(CC3)CN(c3ncnnc3Oc3ccc(Cl)cc3)C4)CC2)nnc1OC [Compound 103] | 107 | 114 |  |
| CCN(C(=O)c1cc(F)ccc1Oc1nncnc1N1CC2(CCN(CC3CCN(C4=NN5CCC(=O)N=C5C=C4)CC3)CC2)C1)C(C)C [Compound 83] |  | 222 |  |
| CCN(C(=O)c1cc(F)ccc1Oc1nncnc1N1CC2(CCN(CC3CCN(C(=O)OC)CC3)CC2)C1)C(C)C [Compound 170, methyl 4-((2-(6-(2-(ethyl(isopropyl)carbamoyl)-4-fluorophenoxy)-1,2,4-triazin-5-yl)-2,7-diazaspiro[3.5]nonan-7-yl)methyl)piperidine-1-carboxylate] |  | 34.4 | 49 |
| CCN(C(=O)c1cc(F)ccc1Oc1nncnc1N1CC(C2(N(C)Cc3ccc4[nH]c(C#N)cc4c3C)CC2)C1)C(C)C [Compound 139, 2-((5-(3-(1-(((2-cyano-4-methyl-1H-indol-5-yl)methyl)(methyl)amino)cyclopropyl)azetidin-1-yl)-1,2,4-triazin-6-yl)oxy)-N-ethyl-5-fluoro-N-isopropylbenzamide] | 23 | 6.1 |  |
| COc1cc(N2CCC(CN3CCC4(CC3)CN(c3ncnnc3Oc3ccc(F)cc3C(=O)OC(C)C)C4)CC2)nnc1OC [Compound 106] | 7 | 0.9 |  |
| CCN(C(=O)c1cc(F)ccc1Oc1nncnc1N1CCC(C2(N(C)Cc3ccc4[nH]c(C#N)cc4c3C)CC2)C1)C(C)C (stereo not drawn) [Compound 142] | 257 | 124 |  |
| Cc1nc(-c2cc(F)ccc2Oc2nncnc2N2CC3(CCN(Cc4ccc5c(cc(C#N)n5CCO)c4C)CC3)C2)n(C(C)C)n1 [Compound 161] | 22 | 18.7 |  |
| CCN(C(=O)c1cc(F)ccc1Oc1nncnc1N1CC2(CCN(Cc3ccc4[nH]c(C(=O)NC)cc4c3)CC2)C1)C(C)C [Compound 65] |  | 83.9 |  |
| CCN(C(=O)c1cc(F)ccc1Oc1nncnc1N1CC2(CCC(CN3CCN(c4ccccn4)CC3)CC2)C1)C(C)C [Compound 173, N-ethyl-5-fluoro-N-isopropyl-2-((5-(7-((4-(pyridin-2-yl)piperazin-1-yl)methyl)-2-azaspiro[3.5]nonan-2-yl)-1,2,4-triazin-6-yl)oxy)benzamide] |  | 750 | 292 |
| CCN(C(=O)c1cc(F)ccc1Oc1nncnc1N1CC2(CCN(CC3CCN(C(=O)NC4COC4)CC3)CC2)C1)C(C)C [Compound 33] | 18 | 2.9 |  |
| CCN(C(=O)c1cc(F)ccc1Oc1nncnc1N1CC2(CCN(CC3CCN(C(=O)NC4CC4)CC3)CC2)C1)C(C)C [Compound 26, N-cyclopropyl-4-((2-(6-(2-(ethyl(isopropyl)carbamoyl)-4-fluorophenoxy)-1,2,4-triazin-5-yl)-2,7-diazaspiro[3.5]nonan-7-yl)methyl)piperidine-1-carboxamide] |  | 0.9 | 7 |
| CCN(C(=O)c1cc(F)ccc1Oc1nncnc1N1CC2(CCN(CC3CCN(c4ccc(C(N)=O)cn4)CC3)CC2)C1)C(C)C [Compound 149, 6-(4-((2-(6-(2-(ethyl(isopropyl)carbamoyl)-4-fluorophenoxy)-1,2,4-triazin-5-yl)-2,7-diazaspiro[3.5]nonan-7-yl)methyl)piperidin-1-yl)nicotinamide formate] |  | 2.9 | 6 |
| [2H]C(c1ccc2[nH]c(C#N)cc2c1C)N1CCC2(CC1)CN(c1ncnnc1Oc1ccc(F)cc1C(=O)N(CC)C(C)C)C2 (stereo not drawn) [Compound 175, 2-((5-(7-((2-cyano-4-methyl-1H-indol-5-yl)methyl-d)-2,7-diazaspiro[3.5]nonan-2-yl)-1,2,4-triazin-6-yl)oxy)-N-ethyl-5-fluoro-N-isopropylbenzamide] | 4 | 1.5 |  |
| CCN(C(=O)c1cc(F)ccc1Oc1nncnc1N1CC2(CCN(CC3(NCCOC)CC3)CC2)C1)C(C)C [Compound 53] | 87 | 99 |  |
| CCNC(=O)N1CCC(CN2CCC3(CC2)CN(c2ncnnc2Oc2ccc(F)cc2C(=O)N(CC)C(C)C)C3)CC1 [Compound 28] | 9 |  |  |
| CCN(C(=O)c1cc(F)ccc1Oc1nncnc1N1CC2(CCN(Cc3ccc4nccn4c3)CC2)C1)C(C)C [Compound 63] |  | > 1000 |  |
| COc1cc(N2CCC(CN3CCC4(CC3)CN(c3ncnnc3Oc3ccc(F)c5nn(C(C)C)cc35)C4)CC2)nnc1OC [Compound 105] |  | 483 |  |
| CCN(C(=O)c1cc(F)ccc1Oc1nncnc1N1CC2(CCN(CC3CCN(C(=O)C4(C(=O)N(C)C)CC4)CC3)CC2)C1)C(C)C [Compound 19, 2-((5-(7-((1-(1-(dimethylcarbamoyl)cyclopropane-1-carbonyl)piperidin-4-yl)methyl)-2,7-diazaspiro[3.5]nonan-2-yl)-1,2,4-triazin-6-yl)oxy)-N-ethyl-5-fluoro-N-isopropylbenzamide] |  |  | 667 |

More lines, main results first:

| GI50 [1, 3] [nM] | IC50 [2] [nM] | SMILES | GI50 [1] [nM] |
| --- | --- | --- | --- |
| 12 | 7.1 | CCN(C(=O)c1cc(F)ccc1Oc1nncnc1N1CC2(CCN(CC3CCN(c4nnc(OC)cc4C)CC3)CC2)C1)C(C)C [Compound 98] |  |
| 78 | 57.7 | CCN(C(=O)c1cc(F)ccc1Oc1nncnc1N1CC2(CCN(CC3CCN(c4ccn(C)n4)CC3)CC2)C1)C(C)C [Compound 79] |  |
| 3 | 2.3 | CCN(C(=O)c1cc(F)ccc1Oc1nncnc1N1CC2(CCN(CC3CCN(c4cccc(C(N)=O)n4)CC3)CC2)C1)C(C)C [Compound 119] |  |
| 3 | 1.5 | CCN(C(=O)c1cc(F)ccc1Oc1nncnc1N1CC2(CCN(CC3CCN(c4ccnc(C(N)=O)c4)CC3)CC2)C1)C(C)C [Compound 151] |  |
| 1390 | 116 | CCN(C(=O)c1cc(F)ccc1Oc1nncnc1N1CC2(CCN(CC3CCN(CC(O)C(N)=O)CC3)CC2)C1)C(C)C (stereo not drawn) [Compound 147, 2-((5-(7-((1-(3-amino-2-hydroxy-3-oxopropyl)piperidin-4-yl)methyl)-2,7-diazaspiro[3.5]nonan-2-yl)-1,2,4-triazin-6-yl)oxy)-N-ethyl-5-fluoro-N-isopropylbenzamide] |  |
| 3 | 2.6 | CCN(C(=O)c1cc(F)ccc1Oc1nncnc1N1CC2(CCN(CC3CCN(c4ccc(C#N)nn4)CC3)CC2)C1)C(C)C [Compound 47] |  |
| 16 | 6.6 | CCN(C(=O)c1cc(F)ccc1Oc1nncnc1N1CC2(CCN(CC3CCN(c4nc(C#N)co4)CC3)CC2)C1)C(C)C [Compound 80] |  |
| 3 | 2.3 | CCN(C(=O)c1cc(F)ccc1Oc1nncnc1N1CC2(CCN(CC3CCN(c4ccnc(OC)c4)CC3)CC2)C1)C(C)C [Compound 114] |  |
| 66 | 41.5 | CCN(C(=O)c1cc(F)ccc1Oc1nncnc1N1CC2(CCN(CC3CCN(c4ccncc4C(N)=O)CC3)CC2)C1)C(C)C [Compound 150, 4-(4-((2-(6-(2-(ethyl(isopropyl)carbamoyl)-4-fluorophenoxy)-1,2,4-triazin-5-yl)-2,7-diazaspiro[3.5]nonan-7-yl)methyl)piperidin-1-yl)nicotinamide] |  |
